Measurements published in patent US7595183B2, “Cathepsins L-like cysteine protease derived from northern shrimp (Pandalus eous)” (Nichirei Corporation, priority 2002, dated 2009).
Peptide text beside a SMILES is read from it. * marks the point of attachment. Cbz = O=C(OCc1ccccc1)*; CHN2 = [N-]=[N+]=C*; tBu = CC(C)(C)*

System: northern shrimp cathepsin L1
Experiment: Effects of inhibitors on northern shrimp cathepsin L1, residual activity with Z-Phe-Arg-MCA
Type: biochemical, northern shrimp (Pandalus eous)
Conditions: for Residual activity (%): enzyme 1 nM, Z-Phe-Arg-MCA 100 μM
Description: Enzymatic activity was assayed at 25° C. using intramolecularly quenched MCA (methyl coumarylamide) substrates in a buffer containing 100 mM sodium acetate, pH 6.0, 100 mM NaCl, 2 mM DTT, 2 mM EDTA and 0.01% Brij-35. The substrate solution was prepared in dimethyl sulfoxide at a concentration of 20 mM. Hydrolysis was initiated by adding the enzyme diluted with the same buffer. Enzymatic activity was determined by measuring fluorescence intensity of the released 7-amino-4-methylcoumarin (AMC) at an excitation wavelength of 380 nm and an emission wavelength of 460 nm.
Enzyme solution was pretreated with any one of inhibitors E64 (L-trans-epoxysuccinyl-leucyl-agmatine), Z-Phe-Phe-CHN2, Z-Phe-Tyr(t-Bu)-CHN2, leupeptin, antipain, PMSF (phenylmethylsulfonyl fluoride), and 1,10-phenanthroline in a buffer (containing 100 mM sodium acetate, 2 mM DTT, 2 mM EDTA, and 0.05% Triton X-100). Residual enzymatic activity was then measured with fluorescent substrate Z-Phe-Arg-MCA. The final concentrations of the enzymes and the substrate were 1 nM and 100 μM, respectively. The residual enzymatic activity was measured with the method described above.

SMILES | Inhibition of northern shrimp cathepsin L1 (in words) | Residual activity (%) (inhibitor 1 μM) | Residual activity (%) (inhibitor 10 μM) | Residual activity (%) (inhibitor 1 mM) | Residual activity (%) (inhibitor 10 mM) | Residual activity (%) (inhibitor 0.1 μM)
CC(C)(C)Oc1ccc(C[C@H](NC(=O)[C@H](Cc2ccccc2)NC(=O)OCc2ccccc2)C(=O)C=[N+]=[N-])cc1 [Z-Phe-Tyr(t-Bu)-CHN2] (Cbz-Phe-Tyr(tBu)-CHN2) | did not inhibit the present enzyme activity so much | 94 | 86 | – | – | –
c1cnc2c(c1)ccc1cccnc12 [1,10-Phenanthroline, 1,10-phenanthroline] | – | – | – | 99 | 98 | –
CC(=O)N[C@@H](CC(C)C)C(=O)N[C@@H](CC(C)C)C(=O)N[C@H](C=O)CCCNC(=N)N [Leupeptin, leupeptin] | strongly inhibited | 0 | 0 | – | – | –
CC(C)C[C@H](NC(=O)[C@H]1O[C@@H]1C(=O)O)C(=O)NCCCCN=C(N)N (relative stereo) [E64, L-trans-epoxysuccinyl-leucyl-agmatine] | strongly inhibited | 0 | – | – | – | 0
[N-]=[N+]=CC(=O)[C@H](Cc1ccccc1)NC(=O)[C@H](Cc1ccccc1)NC(=O)OCc1ccccc1 [Z-Phe-Phe-CHN2] (Cbz-Phe-Phe-CHN2) | did not inhibit the present enzyme activity so much | 78 | 55 | – | – | –
O=S(=O)(F)Cc1ccccc1 [PMSF, phenylmethylsulfonyl fluoride] | – | – | – | 100 | 100 | –
